Assay results: US12509444B2, “Compounds and methods for CD73 modulation and indications therefor” (Plexxikon Inc., priority 2019, dated 2025)

Key:
[1] = target: T1, Human CD73 (amino acid residues 27-549) (Homo sapiens, UniProt P21589); assay: CD73 enzymatic assay (luciferase-based indirect assay, CellTiter-Glo); type: biochemical; conditions: 0.4 nM CD73, 150 μM AMP, 1 hour at room temperature
T1 construct: Human CD73 (amino acid residues 27-549); His tag (N); made in house; host or cells: E. coli
T1 sequence (P21589 27-549): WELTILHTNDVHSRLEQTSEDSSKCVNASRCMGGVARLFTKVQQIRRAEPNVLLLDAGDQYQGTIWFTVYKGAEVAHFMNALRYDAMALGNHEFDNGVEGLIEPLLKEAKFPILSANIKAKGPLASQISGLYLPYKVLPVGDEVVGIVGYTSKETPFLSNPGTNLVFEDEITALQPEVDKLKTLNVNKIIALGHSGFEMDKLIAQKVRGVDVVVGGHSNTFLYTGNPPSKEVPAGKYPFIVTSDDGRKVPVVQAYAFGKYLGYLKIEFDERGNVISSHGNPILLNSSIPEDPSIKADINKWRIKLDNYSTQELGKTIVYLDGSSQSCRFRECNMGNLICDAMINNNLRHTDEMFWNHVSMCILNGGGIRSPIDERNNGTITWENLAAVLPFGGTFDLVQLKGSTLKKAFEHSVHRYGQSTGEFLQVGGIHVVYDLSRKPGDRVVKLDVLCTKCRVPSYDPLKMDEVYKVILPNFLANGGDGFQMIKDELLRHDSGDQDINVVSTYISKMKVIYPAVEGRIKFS
Outline: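 His-tagged human CD73 (27-549) from E. coli, 0.4 nM, with 150 μM AMP in 50 mM HEPES pH 7.4, 0.01% Tween 20; 1 h at room temperature. AMP remaining read by CellTiter-Glo 2.0 luminescence with 1 μM final ATP after 30 min. IC50 from nonlinear regression of % inhibition.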

human CD73 = target: T2, human CD73 (Homo sapiens, UniProt P21589); assay: Inhibitor activity against CD73 in cell based assay (CD73 expressing CHO-K1 cells); conditions: CHO-K1 cells expressing human CD73, 150 μM AMP, 4 hours of incubation; read-out: CHO-K1 CELL VARIANT: CD73 IC50
T2 construct: expressed in transfected cells
T2 sequence (P21589 27-549): T1 sequence (P21589 27-549)
Outline: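 Stably transfected CHO-K1 cells expressing human CD73 (1×10^4/well) incubated 4 h with compound (8-point 1:3 titration, top 10 μM final, 0.2% DMSO) and 150 μM AMP. Residual AMP in supernatant measured by CellTiter-Glo luminescence with 1 μM ATP after 30 min at room temperature; IC50 by nonlinear regression of percent inhibition vs high/low controls.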

IC50 [1] [µM] | IC50 (human CD73) [µM] | SMILES
0.001 to 10 | 0.001 to 10 | C[C@]1(O)CC[C@@H](NC(=O)O[C@@H]2CCN(c3cn[nH]c(=O)c3Cl)C2)CC1 [P-0273, (R)-1-(5-chloro-6-oxo-1,6-dihydropyridazin-4-yl)pyrrolidin-3-yl ((1s,4S)-4-hydroxy-4-methylcyclohexyl)carbamate]
0.001 to 10 | 0.001 to 10 | O=C(N[C@H]1CC[C@@H](O)CC1)O[C@@H]1CCN(c2cn[nH]c(=O)c2Cl)C1 [P-0274, (R)-1-(5-chloro-6-oxo-1,6-dihydropyridazin-4-yl)pyrrolidin-3-yl ((1s,4S)-4-hydroxycyclohexyl)carbamate]
0.001 to 10 | 0.001 to 10 | N#C[C@H]1CC[C@H](NC(=O)O[C@@H]2CCN(c3cn[nH]c(=O)c3Cl)C2)CC1 [P-0275, (R)-1-(5-chloro-6-oxo-1,6-dihydropyridazin-4-yl)pyrrolidin-3-yl ((1r,4R)-4-cyanocyclohexyl)carbamate]
0.001 to 10 | 0.001 to 10 | O=C(NC1CCC2(CC1)CC2)O[C@@H]1CCN(c2cn[nH]c(=O)c2Cl)C1 [P-0276, (R)-1-(5-chloro-6-oxo-1,6-dihydropyridazin-4-yl)pyrrolidin-3-yl spiro[2.5]octan-6-ylcarbamate]
0.001 to 10 | 0.001 to 10 | O=C(N[C@H]1CC[C@H](F)CC1)O[C@@H]1CCN(c2cn[nH]c(=O)c2Cl)C1 [P-0277, (R)-1-(5-chloro-6-oxo-1,6-dihydropyridazin-4-yl)pyrrolidin-3-yl ((1r,4R)-4-fluorocyclohexyl)carbamate]
0.001 to 10 | 0.001 to 10 | CC1(C)CCCC(NC(=O)O[C@@H]2CCN(c3cn[nH]c(=O)c3Cl)C2)C1 (stereo partly drawn) [P-0278, (R)-1-(5-chloro-6-oxo-1,6-dihydropyridazin-4-yl)pyrrolidin-3-yl (3,3-dimethylcyclohexyl)carbamate]
0.001 to 10 | 0.001 to 10 | C[C@H]1CCCC[C@H]1NC(=O)O[C@@H]1CCN(c2cn[nH]c(=O)c2Cl)C1 [P-0279, (R)-1-(5-chloro-6-oxo-1,6-dihydropyridazin-4-yl)pyrrolidin-3-yl ((1R,2S)-2-methylcyclohexyl)carbamate]
0.001 to 10 | 0.001 to 10 | O=C1CC(NC(=O)O[C@@H]2CCN(c3cn[nH]c(=O)c3Cl)C2)CCN1 (stereo partly drawn) [P-0280, (R)-1-(5-chloro-6-oxo-1,6-dihydropyridazin-4-yl)pyrrolidin-3-yl (2-oxopiperidin-4-yl)carbamate]
0.001 to 10 | 0.001 to 10 | CN1CCC(NC(=O)O[C@@H]2CCN(c3cn[nH]c(=O)c3Cl)C2)CC1=O (stereo partly drawn) [P-0281, (R)-1-(5-chloro-6-oxo-1,6-dihydropyridazin-4-yl)pyrrolidin-3-yl (1-methyl-2-oxopiperidin-4-yl)carbamate]
0.001 to 10 | 10 to 100 | O=C(O)Cn1ncc(N2CC[C@@H](OC(=O)NC3CCC(F)(F)CC3)C2)c(Cl)c1=O [P-0282, (R)-2-(5-chloro-4-(3-(((4,4-difluorocyclohexyl)carbamoyl)oxy)pyrrolidin-1-yl)-6-oxopyridazin-1(6H)-yl)acetic acid]
100 to 1000 | 10 to 100 | O=C(O)Cn1ncc(N2CC[C@@H](OC(=O)NC3CCC(F)(F)CC3)C2)cc1=O [P-0283, (R)-2-(4-(3-(((4,4-difluorocyclohexyl)carbamoyl)oxy)pyrrolidin-1-yl)-6-oxopyridazin-1(6H)-yl)acetic acid]
0.001 to 10 | 0.001 to 10 | O=C(NC1CCC(F)(F)CC1)O[C@@H]1CCN(c2cnn(CC(O)C(F)(F)F)c(=O)c2Cl)C1 (stereo partly drawn) [P-0284, (3R)-1-(5-chloro-6-oxo-1-(3,3,3-trifluoro-2-hydroxypropyl)-1,6-dihydropyridazin-4-yl)pyrrolidin-3-yl (4,4-difluorocyclohexyl)carbamate]
0.001 to 10 | 10 to 100 | NC(=O)Cn1ncc(N2CC[C@@H](OC(=O)NC3CCC(F)(F)CC3)C2)c(Cl)c1=O [P-0285, (R)-1-(1-(2-amino-2-oxoethyl)-5-chloro-6-oxo-1,6-dihydropyridazin-4-yl)pyrrolidin-3-yl (4,4-difluorocyclohexyl)carbamate]
0.001 to 10 | 10 to 100 | N#CCn1ncc(N2CC[C@@H](OC(=O)NC3CCC(F)(F)CC3)C2)c(Cl)c1=O [P-0286, (R)-1-(5-chloro-1-(cyanomethyl)-6-oxo-1,6-dihydropyridazin-4-yl)pyrrolidin-3-yl (4,4-difluorocyclohexyl)carbamate]
0.001 to 10 | 0.001 to 10 | O=C(NC1CCC(F)(F)CC1)O[C@@H]1CCN(c2cnn(CCO)c(=O)c2Cl)C1 [P-0287, (R)-1-(5-chloro-1-(2-hydroxyethyl)-6-oxo-1,6-dihydropyridazin-4-yl)pyrrolidin-3-yl (4,4-difluorocyclohexyl)carbamate]
0.001 to 10 | 0.001 to 10 | C[C@@H]1CCCC[C@@H]1NC(=O)O[C@@H]1CCN(c2cn[nH]c(=O)c2Cl)C1 [P-0288, (R)-1-(5-chloro-6-oxo-1,6-dihydropyridazin-4-yl)pyrrolidin-3-yl ((1S,2R)-2-methylcyclohexyl)carbamate]
0.001 to 10 | 0.001 to 10 | Cn1ncc(N2CC[C@@H](OC(=O)N[C@H]3CC[C@H](NS(=O)(=O)c4ccc(F)cc4F)CC3)C2)c(Cl)c1=O [P-0289, (R)-1-(5-chloro-1-methyl-6-oxo-1,6-dihydropyridazin-4-yl)pyrrolidin-3-yl ((1r,4R)-4-((2,4-difluorophenyl)sulfonamido)cyclohexyl)carbamate]
0.001 to 10 | 0.001 to 10 | O=C(N[C@H]1CC[C@@H](NC(=O)C2CCC2)CC1)O[C@@H]1CCN(c2cn[nH]c(=O)c2Cl)C1 [P-0290, (R)-1-(5-chloro-6-oxo-1,6-dihydropyridazin-4-yl)pyrrolidin-3-yl ((1s,4S)-4-(cyclobutanecarboxamido)cyclohexyl)carbamate]
0.001 to 10 | 0.001 to 10 | O=C(N[C@H]1CC[C@H](NS(=O)(=O)C2CCC2)CC1)O[C@@H]1CCN(c2cn[nH]c(=O)c2Cl)C1 [P-0291, (R)-1-(5-chloro-6-oxo-1,6-dihydropyridazin-4-yl)pyrrolidin-3-yl ((1r,4R)-4-(cyclobutanesulfonamido)cyclohexyl)carbamate]
0.001 to 10 | 0.001 to 10 | O=C(N[C@H]1CC[C@H](NS(=O)(=O)c2ccc(Cl)cc2)CC1)O[C@@H]1CCN(c2cn[nH]c(=O)c2Cl)C1 [P-0292, (R)-1-(5-chloro-6-oxo-1,6-dihydropyridazin-4-yl)pyrrolidin-3-yl ((1r,4R)-4-((4-chlorophenyl)sulfonamido)cyclohexyl)carbamate]
0.001 to 10 | 0.001 to 10 | Cc1ccc(S(=O)(=O)N[C@H]2CC[C@H](NC(=O)O[C@@H]3CCN(c4cn[nH]c(=O)c4Cl)C3)CC2)cc1 [P-0293, (R)-1-(5-chloro-6-oxo-1,6-dihydropyridazin-4-yl)pyrrolidin-3-yl ((1r,4R)-4-((4-methylphenyl)sulfonamido)cyclohexyl)carbamate]
0.001 to 10 | 0.001 to 10 | O=C(N[C@H]1CC[C@H](NS(=O)(=O)c2cccc(F)c2)CC1)O[C@@H]1CCN(c2cn[nH]c(=O)c2Cl)C1 [P-0294, (R)-1-(5-chloro-6-oxo-1,6-dihydropyridazin-4-yl)pyrrolidin-3-yl ((1r,4R)-4-((3-fluorophenyl)sulfonamido)cyclohexyl)carbamate]
0.001 to 10 | 0.001 to 10 | O=C(N[C@H]1CC[C@H](NS(=O)(=O)c2cccnc2)CC1)O[C@@H]1CCN(c2cn[nH]c(=O)c2Cl)C1 [P-0295, (R)-1-(5-chloro-6-oxo-1,6-dihydropyridazin-4-yl)pyrrolidin-3-yl ((1r,4R)-4-(pyridine-3-sulfonamido)cyclohexyl) carbamate]
0.001 to 10 | 0.001 to 10 | O=C(N[C@H]1CC[C@H](NS(=O)(=O)c2ccc3ncsc3c2)CC1)O[C@@H]1CCN(c2cn[nH]c(=O)c2Cl)C1 [P-0296, (R)-1-(5-chloro-6-oxo-1,6-dihydropyridazin-4-yl)pyrrolidin-3-yl ((1r,4R)-4-(benzo[d]thiazole-6-sulfonamido)cyclohexyl) carbamate]
0.001 to 10 | 0.001 to 10 | O=C(N[C@H]1CC[C@H](NS(=O)(=O)c2c(F)cccc2F)CC1)O[C@@H]1CCN(c2cn[nH]c(=O)c2Cl)C1 [P-0297, (R)-1-(5-chloro-6-oxo-1,6-dihydropyridazin-4-yl)pyrrolidin-3-yl ((1r,4R)-4-((2,6-difluorophenyl)sulfonamido)cyclohexyl)carbamate]
0.001 to 10 | 0.001 to 10 | O=C(N[C@H]1CC[C@H](NS(=O)(=O)c2cc(F)ccc2F)CC1)O[C@@H]1CCN(c2cn[nH]c(=O)c2Cl)C1 [P-0298, (R)-1-(5-chloro-6-oxo-1,6-dihydropyridazin-4-yl)pyrrolidin-3-yl ((1r,4R)-4-((2,5-difluorophenyl)sulfonamido)cyclohexyl)carbamate]
